Data on two molecules can be found in publication PMC5380267 (Medicine, 2017).

Series [1] in a line: Chronic allograft nephropathy diagnosis in renal transplant patients (protocol biopsies, Banff 97). As to conditions: EVR co-administration.
Method: Protocol biopsies were performed and graded according to the Banff 97 classification.[29]
Series [2] in a line: MPA pharmacokinetics in renal transplant patients on MMF (plasma HPLC-UV, Bayesian estimation of AUC). The note with it: for AUC(0-t) / Cmax: human, plasma; for AUC(0-t): MPA AUC(0–12); for Patients with MPA AUC outside the therapeutic window range: range 30–60 h mg/L. Format: in vivo, human. An excerpt:
Anonymized medical records of 404 patients receiving immunosuppressant therapy after renal transplantation hospitalized at Limoges University Hospital (France) during the study period from 2011 to 2012 were reviewed. […] The patients were excluded if they received immunosuppression with other medicaments and underwent transplantation of other organs.
All patients received prednisolone orally by standard hospital practice.
According to the MMF daily dose, the study patients were allocated into the 3 study groups: the low MMF dose group received 1000 mg per day (28 patients); medium MMF dose group, 2000 mg per day (54 patients); and high MMF dose group, 3000 mg per day (18 patients).
Blood samples were collected in EDTA tubes at 20 minutes, 1 and 3 hours after the administration of MMF. Plasma was separated by centrifugation. […] Blood serum (500 μL), an internal standard (50 μL) (thiopental in methanol 1 g/L diluted with deproteinized water to 25 mg/L), and calibrators were acidified with hydrochloric acid and extracted with dichloromethane (5 mL). […] The organic fraction was then evaporated to dryness under a stream of nitrogen. The dry residue was reconstituted with 100-μL elution solvent (KH2PO4 buffer/acetonitrile [70/30 v/v] at pH = 2.6). Then, the sample (40 μL) was injected into the HPLC system with a steel column Nucleosil C18, 5 μm (250 × 4.6 mm, id) and with UV detection at 300 nm.

The mark [3] stands for this setting: Low-dose MMF group, 1000 mg/day, EVR group.

Turning to `CO[C@H]1C[C@@H]2CC[C@@H](C)[C@@](O)(O2)C(=O)C(=O)N2CCCC[C@H]2C(=O)O[C@H]([C@H](C)C[C@@H]2CC[C@@H](OCCO)[C@H](OC)C2)CC(=O)[C@H](C)/C=C(\C)[C@@H](O)[C@@H](OC)C(=O)[C@H](C)C[C@H](C)/C=C/C=C/C=C/1C` [EVR, everolimus], the “Chronic allograft nephropathy diagnosed, patients” value is reported as 50.0% in series [1] (high MMF dose group (2 of 4)), 64.7% in series [1] (in total), 77.8% in series [1] (low MMF dose group (7 of 9)) and 50.0% in series [1] (medium MMF dose group (2 of 4)).

With `COc1c(C)c2c(c(O)c1C/C=C(\C)CCC(=O)O)C(=O)OC2` [MPA, mycophenolic acid], the “MPA AUC lower in low CsA dose group versus high CsA dose group” value in series [2] (CsA 120–180 mg versus 240–300 mg) is given as “approximately 33%”. The “MPA C0, mean ± SD (range)” value in series [2] (CsA + MMF group, all MMF doses (n = 83)) is 1.00 ± 0.47 (0.00–2.00) mg/L; in series [2] (EVR + MMF group, all MMF doses (n = 17)), 2.58 ± 1.43 (0.68–4.98) mg/L; in series [2] (High-dose MMF group, 3000 mg/day, CsA group), 1.29 ± 0.47 (1.00–2.00) mg/L; in series [2] (High-dose MMF group, 3000 mg/day, EVR group), 3.19 ± 1.60 (1.41–4.89) mg/L; in series [2] (Low-dose MMF group, 1000 mg/day, CsA group) it was 0.58 ± 0.51 (0.00–1.00) mg/L; in series [2] (setting [3]) it was 1.61 ± 0.65 (0.68–2.24) mg/L. For the same molecule, in series [2] (Medium-dose MMF group, 2000 mg/day, EVR group), the “MPA C0, mean ± SD (range)” value is given as 4.17 ± 0.78 (3.12–4.98) mg/L. Besides, in series [2] (setting [3]), the “MPA AUC(0–12), mean ± SD (range)” value is recorded as 31.89 ± 8.43 (20.82–42.25) h mg/L. Besides, the AUC(0-t) (as a rule, exposure summed from dosing to a finite time, without extrapolation to infinity) in series [2] (mean ± SD (range), CsA + MMF group, all MMF doses (n = 83)) was 37900 ± 14100 ng·h/mL; in series [2] (mean ± SD (range), EVR + MMF group, all MMF doses (n = 17)), 47000 ± 21900 ng·h/mL; in series [2] (mean ± SD (range), High-dose MMF group, 3000 mg/day, CsA group) it was 44600 ± 14000 ng·h/mL; in series [2] (mean ± SD (range), High-dose MMF group, 3000 mg/day, EVR group) it was 59500 ± 18300 ng·h/mL; in series [2] (mean ± SD (range), Low-dose MMF group, 1000 mg/day, CsA group), 30600 ± 12700 ng·h/mL; in series [2] (mean ± SD (range), Medium-dose MMF group, 2000 mg/day, CsA group), 38700 ± 13700 ng·h/mL. For the same molecule, the AUC(0-t) in series [2] (mean ± SD (range), Medium-dose MMF group, 2000 mg/day, EVR group) is 68700 ± 22700 ng·h/mL; in series [2] (mean ± SD, CsA + MMF, MMF 1000 mg/day, CsA 120–180 mg/day) it was 28100 ± 11000 ng·h/mL; in series [2] (mean ± SD, CsA + MMF, MMF 1000 mg/day, CsA 180–240 mg/day), 40500 ± 11000 ng·h/mL; in series [2] (mean ± SD, CsA + MMF, MMF 2000 mg/day, CsA 120–180 mg/day) it was 28800 ± 11100 ng·h/mL; in series [2] (mean ± SD, CsA + MMF, MMF 2000 mg/day, CsA 180–240 mg/day), 41800 ± 15600 ng·h/mL; in series [2] (mean ± SD, CsA + MMF, MMF 2000 mg/day, CsA 240–300 mg/day) it was 43000 ± 6270 ng·h/mL. Further, the AUC(0-t) in series [2] (mean ± SD, CsA + MMF, MMF 3000 mg/day, CsA 120–180 mg/day) was 36200 ± 3700 ng·h/mL; in series [2] (mean ± SD, CsA + MMF, MMF 3000 mg/day, CsA 180–240 mg/day) it was 43400 ± 13100 ng·h/mL; in series [2] (mean ± SD, CsA + MMF, MMF 3000 mg/day, CsA 240–300 mg/day), 56800 ± 16800 ng·h/mL. Further, the Cmax (usually the maximum level reached in the sampled fluid or tissue) was > 10000 ng/mL in series [2] (MPA Cmax related to high-dose CsA, CsA >240 mg/day); 17600 ± 8510 ng/mL in series [2] (MPA Cmax, mean ± SD (range), CsA + MMF group, all MMF doses (n = 83)); 14300 ± 6380 ng/mL in series [2] (MPA Cmax, mean ± SD (range), EVR + MMF group, all MMF doses (n = 17)); 21000 ± 7050 ng/mL in series [2] (MPA Cmax, mean ± SD (range), High-dose MMF group, 3000 mg/day, CsA group); 15500 ± 8930 ng/mL in series [2] (MPA Cmax, mean ± SD (range), Low-dose MMF group, 1000 mg/day, CsA group); 10800 ± 4810 ng/mL in series [2] (MPA Cmax, mean ± SD (range), Low-dose MMF group, 1000 mg/day, EVR group). For the same molecule, the Cmax in series [2] (MPA Cmax, mean ± SD (range), Medium-dose MMF group, 2000 mg/day, CsA group) was 17500 ± 8580 ng/mL; in series [2] (MPA Cmax, mean ± SD (range), Medium-dose MMF group, 2000 mg/day, EVR group), 17400 ± 7740 ng/mL; in series [2] (MPA Cmax, mean ± SD, CsA + MMF, MMF 1000 mg/day, CsA 120–180 mg/day), 12100 ± 5590 ng/mL; in series [2] (MPA Cmax, mean ± SD, CsA + MMF, MMF 1000 mg/day, CsA 180–240 mg/day) it was 22800 ± 10800 ng/mL; in series [2] (MPA Cmax, mean ± SD, CsA + MMF, MMF 2000 mg/day, CsA 120–180 mg/day) it was 13000 ± 6820 ng/mL; in series [2] (MPA Cmax, mean ± SD, CsA + MMF, MMF 2000 mg/day, CsA 180–240 mg/day), 17000 ± 8020 ng/mL. Also, the Cmax in series [2] (MPA Cmax, mean ± SD, CsA + MMF, MMF 2000 mg/day, CsA 240–300 mg/day) is 22800 ± 8860 ng/mL; in series [2] (MPA Cmax, mean ± SD, CsA + MMF, MMF 3000 mg/day, CsA 120–180 mg/day), 19000 ± 5390 ng/mL; in series [2] (MPA Cmax, mean ± SD, CsA + MMF, MMF 3000 mg/day, CsA 180–240 mg/day) it was 22800 ± 8120 ng/mL; in series [2] (MPA Cmax, mean ± SD, CsA + MMF, MMF 3000 mg/day, CsA 240–300 mg/day) it was 21200 ± 8770 ng/mL. Also, the “MPA AUC(0–12) higher with MMF + EVR than with MMF + CsA” value in series [2] (medium MMF dose (2000 mg)) is 43%. Further, the “Patients with MPA AUC outside the therapeutic window range” value in series [2] (MMF + CsA) is recorded as 31.3%; in series [2] (MMF + EVR) it was 47.00%; in series [2] (all study patients), 34%.
